What was measured:
wild type seedlings = test: Starch accumulation (Lugol/iodine staining); type: in vivo, A. thaliana; settings: MC2 5 μM; same response as phosphate deficiency (starch strongly accumulated), FIG. 7
Description: Leaves were immersed in ethanol (96%) for 6 h to remove pigment and stained with Lugol solution (Fluka) for 30 min to make the starch granules visible.

PHT1;4 = test: Chemical genetic screen, pPHT1;4::GUS line (GUS activity in root tip); type: in vivo, A. thaliana; settings: plant grown on high phosphate medium (500 μM), FIG. 2
Description: pPHT1;4::GUS (DCJ 10) cell line is as described by Misson et al. (Misson et al., 2004). This cell line expresses the GUS reporter under the control of the promoter of the pht1;4 gene.
Plants were examined for GUS activity by dipping the samples in a GUS staining solution (50 mM sodium phosphate buffer pH 7.0; 0.01% Triton X-100, 1 mM K3Fe(CN)6, 1 mM K4Fe(CN)6, 1 mg/ml 5-dromo-4-chloro-3-indolyl (3-D-GLUCURONIDE (X-Gluc A) and incubated at 37° C. over-night. After staining, the plants were fixed 2 hours in 50 mM sodium phosphate buffer pH 7.0; 1% glutaraldehyde; 4% formaldehyde.
Chemical genetic screen was based on PHT1;4 expression using the line pPHT1;4::GUS (Misson et al., 2004). […] The formula of MC2 is the following: […]

A. thaliana = test: Root growth (primary root) of plants on high phosphate medium supplied with compound; type: in vivo; settings: expressed as a percentage having regard to a control; +P control 100, −P 20
Source text: In response to phosphate starvation, the primary root growth is inhibited (Svistoonoff et al., 2007).

ferritin = test: Western blot of plant ferritin on leaf protein extracts; type: in vivo; settings: leaves, high phosphate medium + MC2 5 μM, FIG. 12
Source text: After SDS-PAGE in a 12% acrylamide gel and transfer onto a nitrocellulose membrane, ferritin was immunodetected with a primary rabbit polyclonal antibody against AtFER1 and a secondary goat antirabbit antibody conjugated with alkaline phosphatase.
From previous study in the lab, it is known that in response to phosphate starvation, iron is accumulated in cells inducing ferritin accumulation (Hirsch et al., 2006). To determine MC2 effect on iron metabolism, the iron content was quantified by ICP-OES (FIG. 11), accumulation of ferritin was analyzed by Western Blot (FIG. 12) and finally IRT1 gene expression was analyzed, since this gene encodes an iron transporter (FIG. 12).

phopholipase Dz2 = test: PLDz::GUS, follow-up of the expression of the gene encoding phospholipase Dz2 (GUS staining); type: in vivo, A. thaliana; settings: high phosphate medium + MC2 5 μM, FIG. 10
Description: pPLDZ2:GUS-GFP cell line is as described by Cruz-Ramirez et al. (Cruz-Ramirez et al., 2006), and expressed a GUS-GFP fusion under the control of the pldz2 promoter. […] Plants were examined for GUS activity by dipping the samples in a GUS staining solution (50 mM sodium phosphate buffer pH 7.0; 0.01% Triton X-100, 1 mM K3Fe(CN)6, 1 mM K4Fe(CN)6, 1 mg/ml 5-dromo-4-chloro-3-indolyl (3-D-GLUCURONIDE (X-Gluc A) and incubated at 37° C. over-night. After staining, the plants were fixed 2 hours in 50 mM sodium phosphate buffer pH 7.0; 1% glutaraldehyde; 4% formaldehyde. In response to phosphate starvation, the lipid metabolism is modified (Benning and Ohta, 2005). Plants preferentially synthesize sulpho- and galacto-lipids instead of phospholipids. Several enzymes are involved in this remobilisation.

PLDζ2 expression (in words) (phopholipase Dz2): strongly expressed
SMILES: Cc1cccc(NC=C2C(=O)CC(C)(C)CC2=O)n1 [MC2]
starch accumulation (in words) (wild type seedlings): same response
expression of PHT1;4 (pPHT1;4::GUS) (PHT1;4): induce the expression of PHT1;4
Root Growth (A. thaliana): 51 % of control
ferritin accumulation (Western blot) (ferritin): not in response to MC2 treatment

Reference: patent US9028855B2, “Plant additives and uses thereof to modulate the synthesis of membrane glycerolipids in planta” (Commissariat a l'Energie Atomique et aux Energies …, priority 2009, dated 2015)
